This note sets out measurements from PMC13147323, “EGFR-Targeted and MMP-Activated Membranolytic Peptides Kill Cancer Cells Specifically In Vitro and Reduce Tumor Growth In Vivo” (Molecular Pharmaceutics, 2026).

The structures appear in SMILES notation. Residues, ends and D or L forms follow the SMILES beside them.

The subject of data set [1] is red blood cells. Description: Ex vivo hemolysis assay. The data set is classed as cell-based. As to conditions: mouse RBCs 1:50 in PBS, three doses, 1 h, 37 °C, absorbance 540 nm. Here is the method: Blood was collected from five 10-week-old male C57BL/6 mice via cardiac puncture following cervical dislocation, using pediatric blood collection tubes containing K3 EDTA (Greiner; Slušovice, Czechia). Blood was centrifuged (500g; 5 min; 4 °C) and plasma was removed. Red blood cells (RBCs) were resuspended to their original volume using 150 mM NaCl. RBCs were repeatedly washed and diluted to 1:50 in PBS. For a positive control, 1% (v/v) Triton X-100 was used (100% lysis), while cells incubated in PBS served as a negative control (0% lysis). 200 μL of RBCs in triplicate was treated with peptides and incubated on an orbital shaker (100 rpm; 1 h; 37 °C). Samples were centrifuged (500g; 5 min) and supernatants, containing lysed RBCs, were collected. Hemolysis was quantified by measuring absorbance at 540 nm.
Our next aim was to assess whether our various peptides had potential as anticancer therapeutics using an in vivo model. To our knowledge, MP1 or MP1-derived peptides have not previously been used experimentally in vivo, therefore we first performed an in vitro hemolysis assay to aid selection of peptides that could be suitable for intravenous delivery. Red blood cells were isolated from mouse blood and treated with three different doses of MP1 wildtype or our targeted peptides (EGFR and EGFR-MMP versions of both MP1 and D2K) and hemolysis was measured (Figure A).

For data set [2], the system named is MDA-MB-468 xenografts. Description: MDA-MB-468 xenograft study in NCG mice. The note with it: 500 μg i.v. days 1, 3, 5, monitored 27 days, recovered by the end of the experiment. The class given is in vivo, mouse. The protocol: These were performed by HD Biosciences (Shanghai, China). Procedures related to handling, care, and treatment of animals were performed according to guidelines approved by the HD Biosciences Institutional Animal Care and Use Committee (reference number AUC105), under the criteria of the Association for Assessment and Accreditation of Laboratory Animal Care (AAALAC). Protocols and AAALAC accreditation were reviewed by the Animal Welfare and Ethical Review Committee at the University of Leeds and were approved (reference number THAWERC222707; date 28/7/2022). Protocols and data are reported in accordance with the ARRIVE guidelines (https://arriveguidelines.org/arrive-guidelines). Female NCG mice (6–8 weeks old) were purchased from GemPharmatech Ltd. (Nanjing, China). […] Two groups were used: control group (13 animals) and test group (7 animals); group sizes were not determined by power calculation due to lack of data on which this could be based. […] Tumor volumes were monitored using calipers, and body weight was monitored throughout the experiment; no animals were excluded. […]
NCG immune-compromised female mice were implanted subcutaneously with MDA-MB-468 xenografts. […] Tumor size and animal weight were monitored every 2 to 3 days for a total of 27 days, after which animals were sacrificed and tumors were dissected and weighed. […]

Data set [3] deals with MDA-MB-468 cells. The data set is classed as cell-based, human. The note with it: 24 h. Here is the method:
(§1) MDA-MB-468, MDA-MB-231, BT-474, AU-565, HB2, and MCF-10A cells were procured from American Type Culture Collection (ATCC) and validated for lack of mycoplasma contamination (MycoAlert; Lonza, Basel, Switzerland) and identity (short tandem repeat profiling; Source Bioscience, Nottingham, UK). Cells (except MCF-10A) were cultured in Dulbecco’s modified Eagle medium (DMEM) supplemented with 10% (v/v) fetal calf serum (FCS) and 100 units/mL penicillin–streptomycin (Thermo Scientific; Waltham, MA, USA). MCF-10A was cultured in DMEM supplemented with 5% horse serum, 0.1 μg/mL cholera toxin, 0.5 μg/mL hydrocortisone, 0.02 μg/mL epidermal growth factor, and 100 units/mL penicillin–streptomycin (Thermo Scientific, Waltham, MA, USA). Cells were grown at 37 °C in a humidified incubator with 5% CO2. Cells were maintained and experiments were performed under conditions ensuring cell densities that supported exponential growth.
(§2) Cells were seeded in 96-well plates at 1 × 10^4 cells/well in complete growth media and incubated for 18 h. Cells were then treated with peptides (0–250 μM) for up to 24 h. Cells were then incubated with 0.5 mg/mL MTT dissolved in PBS for 3 h. Formazan crystals were dissolved using […] of isopropanol and absorbance was measured at 570 nm on a microplate spectrophotometer (Biotech Instruments, USA). For spheroids assays, MDA-MB-468 or HB2 cells (1000 cells/well) were seeded in 250 μL of DMEM supplemented with 10% FCS and 2.5% Matrigel (Corning, New York, USA) in low-adherent, round-bottom 96-well plates (Corning, New York, USA). The plates were centrifuged at 360g for 10 min and subsequently incubated for 48 h to allow spheroid formation. MDA-MB-468 or HB2 spheroids were then treated with peptides at the IC50 doses determined for MDA-MB-468 cells for 24 h. Cellular viability within spheroids was assessed by staining with Hoechst 33342 (5 μg/mL) for 30 min, followed by propidium iodide (PI) (1.5 μg/mL) for 10 min. Red fluorescence indicated nonviable cells stained with PI, whereas blue fluorescence represented both viable and nonviable cells stained with Hoechst 33342. The survival of spheroids was determined by calculating ratios of blue/red fluorescence using ImageJ software.
(§3) A panel of human breast epithelial cell lines was established, including two lines from a nontransformed origin (MCF-10A; HB2) and four cancer lines (BT-474; AU-565; MDA-MB-231; MDA-MB-468). Cells were treated with different doses of MP1 or the modified peptides. Survival was assessed relative to untreated using MTT assays (Figures and S2) and IC50 doses were determined for each peptide in each cell line.

For data set [4], the system named is AU-565 cells. The class given is cell-based, human. The note with it: 24 h. Here is the method:
as §1, §2, §3

The subject of data set [5] is BT-474 cells. The data set is classed as cell-based, human. As to conditions: 24 h. The protocol: as §1, §2, §3
In data set [6] the test system is HB2 cells. The data set is classed as cell-based, human. The note with it: 24 h. Here is the method: as §1, §2, §3
In data set [7] the test system is MCF-10A cells. The data set is classed as cell-based, human. As to conditions: 24 h. Here is the method:
as §1, §2, §3

The subject of data set [8] is MDA-MB-231 cells. The data set is classed as cell-based, human. As to conditions: 24 h. Here is the method: as §1, §2, §3

Regarding `CC[C@H](C)[C@H](N)C(=O)N[C@@H](CC(=O)O)C(=O)N[C@@H](Cc1c[nH]c2ccccc12)C(=O)N[C@@H](CCCCN)C(=O)N[C@@H](CCCCN)C(=O)N[C@@H](CC(C)C)C(=O)N[C@@H](CC(C)C)C(=O)N[C@@H](CC(=O)O)C(=O)N[C@@H](C)C(=O)N[C@@H](C)C(=O)N[C@@H](CCCCN)C(=O)N[C@@H](CCC(N)=O)C(=O)N[C@H](C(=O)N[C@@H](CC(C)C)C(=O)NCC(=O)N1CCC[C@H]1C(=O)N[C@@H](CC(C)C)C(=O)NCC(=O)N[C@H](C(=O)N[C@@H](C)C(=O)NCC(=O)N[C@@H](CCC(N)=O)C(=O)N[C@@H](Cc1ccc(O)cc1)C(=O)N[C@@H](Cc1c[nH]cn1)C(=O)N[C@@H](Cc1c[nH]c2ccccc12)C(=O)N[C@@H](Cc1ccc(O)cc1)C(=O)NCC(=O)N[C@@H](Cc1ccc(O)cc1)C(=O)N[C@H](C(=O)N1CCC[C@H]1C(=O)N[C@@H](CCC(=O)O)C(=O)N[C@@H](CC(N)=O)C(=O)N[C@H](C(=O)N[C@H](C(=O)O)[C@@H](C)CC)C(C)C)[C@@H](C)O)[C@@H](C)CC)[C@@H](C)CC` [EGFR-MMP-MP1] (H-IDWKKLLDAAKQILGPLGIAGQYHWYGYTPENVI-OH), the “hemolysis (in words)” value in data set [1] is listed as “low hemolysis at relevant doses”. Further, the “animal weights as surrogate for side-effects” value in data set [2] was “slightly reduced”. Besides, the IC50 in data set [3] stood at 56.6 µM; in data set [4] it was 105 µM; in data set [5], 116 µM; in data set [6], 92.4 µM; in data set [7] it was 114 µM; in data set [8], 57.9 µM. Besides, the “selectivity index (IC50 noncancer line / IC50 cancer line)” value in data set [3] was found to be 1.63.
